Key:
[1] = molecular target: N2A (GluN2A), in N1/N2A (A-type) NMDA receptor (Mus musculus, UniProt P35436); experiment: whole-cell patch clamp, EPSC dose-inhibition in N2B knockout neurons; type: cell-based
[2] = molecular target: N2B (GluN2B), in N1/N2B (B-type) NMDA receptor (Mus musculus, UniProt Q01097); experiment: whole-cell patch clamp, EPSC dose-inhibition in N2A knockout neurons; type: cell-based
N2B (GluN2B), in N1/N2B (B-type) NMDA receptor, sequence (Q01097 27-1482, other chains not shown): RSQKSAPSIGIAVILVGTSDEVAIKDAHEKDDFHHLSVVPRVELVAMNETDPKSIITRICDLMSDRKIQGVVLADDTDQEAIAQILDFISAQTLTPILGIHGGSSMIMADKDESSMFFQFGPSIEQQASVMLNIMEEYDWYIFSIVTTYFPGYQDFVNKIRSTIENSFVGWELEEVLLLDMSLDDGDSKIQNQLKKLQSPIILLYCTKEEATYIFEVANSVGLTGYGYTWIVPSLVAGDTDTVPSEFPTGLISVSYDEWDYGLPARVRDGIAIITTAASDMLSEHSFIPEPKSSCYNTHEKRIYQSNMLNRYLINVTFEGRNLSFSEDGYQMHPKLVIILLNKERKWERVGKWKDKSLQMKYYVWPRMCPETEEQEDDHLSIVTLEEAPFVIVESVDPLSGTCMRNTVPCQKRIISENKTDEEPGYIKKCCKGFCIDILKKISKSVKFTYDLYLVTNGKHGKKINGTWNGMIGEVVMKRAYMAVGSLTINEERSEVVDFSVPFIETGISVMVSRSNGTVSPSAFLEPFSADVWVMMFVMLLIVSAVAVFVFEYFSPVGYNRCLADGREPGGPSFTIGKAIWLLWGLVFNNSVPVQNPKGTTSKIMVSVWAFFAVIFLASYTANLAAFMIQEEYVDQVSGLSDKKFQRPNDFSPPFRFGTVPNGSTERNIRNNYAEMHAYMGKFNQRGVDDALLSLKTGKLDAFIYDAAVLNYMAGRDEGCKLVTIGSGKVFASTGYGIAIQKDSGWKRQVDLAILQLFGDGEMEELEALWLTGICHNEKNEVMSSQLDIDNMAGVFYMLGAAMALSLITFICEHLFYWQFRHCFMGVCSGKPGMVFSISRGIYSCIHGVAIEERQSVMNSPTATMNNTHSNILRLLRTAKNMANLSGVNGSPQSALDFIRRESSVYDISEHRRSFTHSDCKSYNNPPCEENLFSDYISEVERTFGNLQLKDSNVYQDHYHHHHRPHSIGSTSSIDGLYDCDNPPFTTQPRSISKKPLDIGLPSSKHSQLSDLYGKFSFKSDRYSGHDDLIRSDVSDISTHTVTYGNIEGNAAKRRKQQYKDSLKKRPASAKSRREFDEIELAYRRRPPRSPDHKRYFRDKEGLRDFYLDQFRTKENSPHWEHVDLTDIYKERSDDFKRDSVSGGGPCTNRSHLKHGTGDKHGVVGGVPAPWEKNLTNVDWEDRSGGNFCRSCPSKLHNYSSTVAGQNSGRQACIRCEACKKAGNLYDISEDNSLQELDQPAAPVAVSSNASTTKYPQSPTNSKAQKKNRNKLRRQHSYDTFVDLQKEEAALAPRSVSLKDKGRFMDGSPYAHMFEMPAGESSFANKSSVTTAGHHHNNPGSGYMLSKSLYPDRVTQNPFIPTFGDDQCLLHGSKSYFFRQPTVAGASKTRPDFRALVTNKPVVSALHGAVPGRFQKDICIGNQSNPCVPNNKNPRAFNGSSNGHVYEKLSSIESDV

N2A (GluN2A), in N1/N2A (A-type) NMDA receptor, sequence (P35436 23-1464, other chains not shown): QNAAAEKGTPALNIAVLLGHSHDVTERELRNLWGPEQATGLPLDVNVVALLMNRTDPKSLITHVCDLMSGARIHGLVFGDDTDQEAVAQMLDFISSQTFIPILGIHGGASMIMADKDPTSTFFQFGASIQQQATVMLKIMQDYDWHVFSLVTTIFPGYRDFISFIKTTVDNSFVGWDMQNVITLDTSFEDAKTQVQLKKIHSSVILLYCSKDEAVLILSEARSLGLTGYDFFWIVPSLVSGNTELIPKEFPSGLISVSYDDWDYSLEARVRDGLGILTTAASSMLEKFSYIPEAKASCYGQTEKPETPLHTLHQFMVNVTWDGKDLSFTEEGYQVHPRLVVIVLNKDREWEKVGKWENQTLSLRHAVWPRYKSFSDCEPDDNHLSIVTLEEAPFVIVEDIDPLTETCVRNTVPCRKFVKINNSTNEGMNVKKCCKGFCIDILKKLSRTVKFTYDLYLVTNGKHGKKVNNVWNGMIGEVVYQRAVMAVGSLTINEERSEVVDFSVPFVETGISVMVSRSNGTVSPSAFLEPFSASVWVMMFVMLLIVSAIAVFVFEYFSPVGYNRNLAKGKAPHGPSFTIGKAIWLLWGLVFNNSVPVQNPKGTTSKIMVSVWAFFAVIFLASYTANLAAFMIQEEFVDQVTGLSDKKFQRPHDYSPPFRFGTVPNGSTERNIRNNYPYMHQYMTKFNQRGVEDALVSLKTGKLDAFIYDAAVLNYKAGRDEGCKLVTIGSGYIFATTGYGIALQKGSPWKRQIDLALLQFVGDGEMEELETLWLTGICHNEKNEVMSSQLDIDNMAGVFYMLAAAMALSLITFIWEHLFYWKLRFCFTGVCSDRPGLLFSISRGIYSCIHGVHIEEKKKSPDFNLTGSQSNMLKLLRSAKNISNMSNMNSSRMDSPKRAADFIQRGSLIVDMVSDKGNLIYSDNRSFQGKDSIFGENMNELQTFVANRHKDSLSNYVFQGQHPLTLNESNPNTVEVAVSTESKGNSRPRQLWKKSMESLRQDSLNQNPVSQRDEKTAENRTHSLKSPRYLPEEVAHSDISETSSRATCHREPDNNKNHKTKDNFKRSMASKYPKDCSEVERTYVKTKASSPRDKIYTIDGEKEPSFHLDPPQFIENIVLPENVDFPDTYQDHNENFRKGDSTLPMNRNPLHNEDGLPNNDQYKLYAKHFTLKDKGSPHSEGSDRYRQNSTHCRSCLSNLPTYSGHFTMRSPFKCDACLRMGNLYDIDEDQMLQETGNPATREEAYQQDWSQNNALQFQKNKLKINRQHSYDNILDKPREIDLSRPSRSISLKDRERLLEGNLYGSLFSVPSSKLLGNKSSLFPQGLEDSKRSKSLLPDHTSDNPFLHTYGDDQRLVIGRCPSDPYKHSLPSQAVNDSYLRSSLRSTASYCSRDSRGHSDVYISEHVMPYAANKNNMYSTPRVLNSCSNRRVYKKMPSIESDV

## C[C@H](N[C@@H](c1cccc2[nH]c(=O)c(=O)[nH]c12)P(=O)(O)O)c1ccc(Br)cc1 [NVP-AAM077]
[1]
  IC50: 10 nM
[2]
  IC50: 119 nM
